This note sets out measurements from paper PMC3675020, “Repositioning of Verrucosidin, a Purported Inhibitor of Chaperone Protein GRP78, as an Inhibitor of Mitochondrial Electron Transport Chain Complex I” (PLoS ONE, 2013).

This assay addresses T1, complex I (NADH dehydrogenase) (Mus musculus, UniProt P03888+Q91WD5+Q91YT0+Q9DC70).
T1 construct: gene Ndufs2; native respiratory complex in intact isolated mouse liver mitochondria; with NADH dehydrogenase [ubiquinone] flavoprotein 2, mitochondrial; NADH-ubiquinone oxidoreductase 75 kDa subunit, mitochondrial; NADH dehydrogenase [ubiquinone] iron-sulfur protein 3, mitochondrial; NADH dehydrogenase [ubiquinone] iron-sulfur protein 8, mitochondrial; NADH-ubiquinone oxidoreductase chain 2; NADH-ubiquinone oxidoreductase chain 3; NADH-ubiquinone oxidoreductase chain 4; NADH-ubiquinone oxidoreductase chain 4L; NADH-ubiquinone oxidoreductase chain 5; NADH-ubiquinone oxidoreductase chain 6
Nature of the assay: NADH:DCIP reduction, absorbance […] nm. The class given is biochemical. As to conditions: isolated mouse liver mitochondria; DCIP as artificial electron acceptor, glycylglycine pH 8.5; turnover only.

Take `NC(=O)C1=CN([C@@H]2O[C@H](COP(=O)(O)OP(=O)(O)OC[C@H]3O[C@@H](n4cnc5c(N)ncnc54)[C@H](O)[C@@H]3O)[C@@H](O)[C@H]2O)C=CC1` [NADH]: the “NADH:DCIP reduction, absorbance 600 nm” value is “artificial electron acceptor dichlorophenolindophenol (DCIP) in the presence of NADH”.
